This passage reports IC50 results from US20260042764A1, “COMPOSITIONS AND METHODS FOR INHIBITION OF KRAS” (TheRas, Inc., priority 2022, published 2026).

Some results are limits rather than exact numbers.

In experiment [1] the target is T1, Avi-KRAS G12V (1-169) GppNHp/RAF1 RBD-3xFLAG (52-151) (Homo sapiens, UniProt P01116, G12V).
T1 construct: Avi-KRAS G12V (1-169)
As to the kind of experiment: Raf1-KRAS G12V-GppNHP disruption HTRF assay (Biological Example 1). To be noted: KRAS G12V, GppNHp-loaded; Table 11. The format is binding. In short, it runs like this:
(§1)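 Protein mix, 1 h RT, 700 rpm; reagent mix, 1 h RT, 700 rpm; HTRF read. Buffer Tris pH 7.5/NaCl/MgCl2/BSA/Tween, 10% DMSO. Output % activity, DMSO = 100%.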
(TR-FRET usually uses a lanthanide donor and a delayed reading to cut background.)

For the next experiment, the system named is GP2d cells (KRAS G12D). The experiment in a line: Cell-based pERK HTRF assay in GP2d cell (Biological Example 2). To be noted: GP2d (KRAS G12D) cells, pERK HTRF. The essentials: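 Phospho-ERK in lysed cells was detected by HTRF using Eu cryptate and d2 antibodies, read between 4 and 24 h at room temperature. Prior to lysis, KRAS G12D GP2d cells, seeded the day before in DMEM with 10% FBS, were exposed to compounds for 60 min. Compounds were tested as 9-point half-log curves from 1 μM or 100 nM top, with 0.25% DMSO.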

Experiment [2] has as its target T2, Avi-KRAS G12D (1-169) GppNHp/RAF1 RBD-3xFLAG (52-151) (Homo sapiens, UniProt P01116, G12D).
T2 construct: Avi-KRAS G12D (1-169)
As to the kind of experiment: Raf1-KRAS G12D-GppNHP disruption HTRF assay (Biological Example 1). The format is binding. To be noted: KRAS G12D, GppNHp-loaded; Table 11. In short, it runs like this: as §1

For experiment [3], the target named is T3, Avi-KRAS G12R (1-169) GppNHp/RAF1 RBD-3xFLAG (52-151) (Homo sapiens, UniProt P01116, G12R).
T3 construct: Avi-KRAS G12R (1-169)
T3 sequence (P01116 1-169 isoform P01116-2 G12R): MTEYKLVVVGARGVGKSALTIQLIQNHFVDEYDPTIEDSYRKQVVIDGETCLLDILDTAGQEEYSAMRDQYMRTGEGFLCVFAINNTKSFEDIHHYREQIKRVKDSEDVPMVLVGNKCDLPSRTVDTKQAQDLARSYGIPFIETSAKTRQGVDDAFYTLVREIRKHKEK
The experiment in a line: Raf1-KRAS G12R-GppNHP disruption HTRF assay (Biological Example 1). The format is binding. To be noted: KRAS G12R, GppNHp-loaded; Table 11. In short, it runs like this: as §1

Experiment [4] has as its target T4, Avi-KRAS WT (1-169) GppNHp/RAF1 RBD-3xFLAG (52-151) (Homo sapiens, UniProt P01116).
T4 construct: Avi-KRAS WT (1-169)
As to the kind of experiment: Raf1-KRAS WT-GppNHP disruption HTRF assay (Biological Example 1). The experiment is classed as binding. The settings on record: KRAS WT, GppNHp-loaded; Table 11. The essentials:
as §1

T1 sequence (P01116 1-169 isoform P01116-2 G12V): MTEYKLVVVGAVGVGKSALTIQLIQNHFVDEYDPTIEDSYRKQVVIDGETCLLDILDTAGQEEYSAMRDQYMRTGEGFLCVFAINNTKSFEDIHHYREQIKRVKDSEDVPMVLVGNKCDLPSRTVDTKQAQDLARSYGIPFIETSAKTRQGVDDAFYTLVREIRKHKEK
T4 sequence (P01116 1-169 isoform P01116-2): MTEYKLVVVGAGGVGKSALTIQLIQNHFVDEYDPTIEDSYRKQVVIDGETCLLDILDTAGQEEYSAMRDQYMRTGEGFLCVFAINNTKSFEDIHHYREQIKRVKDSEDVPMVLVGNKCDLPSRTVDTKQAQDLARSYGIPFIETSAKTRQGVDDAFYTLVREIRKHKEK
T2 sequence (P01116 1-169 isoform P01116-2 G12D): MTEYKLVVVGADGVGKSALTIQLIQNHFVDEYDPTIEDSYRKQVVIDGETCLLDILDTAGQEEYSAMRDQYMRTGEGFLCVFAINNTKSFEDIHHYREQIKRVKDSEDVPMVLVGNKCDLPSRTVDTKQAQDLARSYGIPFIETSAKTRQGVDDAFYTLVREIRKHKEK

Consider `N#Cc1c(N)sc2c(F)ccc(-c3c(C(F)(F)F)cc4c(N5C[C@H](F)[C@@H](F)C5)nc(OC[C@@]56CCCN5C[C@H](F)C6)nc4c3F)c12` [Compound 158], for which the IC50 is 100 to 1000 nM in experiment [1]; under 100 nM with GP2d cells (KRAS G12D) (GP2d); 100 to 1000 nM in experiment [2]; 100 to 1000 nM in experiment [3]; 100 to 1000 nM in experiment [4].
For the molecule `N#Cc1c(N)sc2c(F)ccc(-c3c(C(F)(F)F)cc4c(N5CCC(F)(F)C5)nc(OC[C@@]56CCCN5C[C@H](F)C6)nc4c3F)c12` [Compound 159], the IC50 in experiment [1] was 1000 to 10000 nM; in the experiment on GP2d cells (KRAS G12D) (GP2d), under 100 nM; in experiment [2] it was 100 to 1000 nM; in experiment [3], 100 to 1000 nM; in experiment [4], 100 to 1000 nM.
Turning to `CN(CC(F)F)c1nc(OC[C@@]23CCCN2C[C@H](F)C3)nc2c(F)c(-c3ccc(F)c4sc(N)c(C#N)c34)c(C(F)(F)F)cc12` [Compound 164], the IC50 in experiment [1] was 100 to 1000 nM; with GP2d cells (KRAS G12D) (GP2d), under 100 nM; in experiment [2], 100 to 1000 nM; in experiment [3] it was 100 to 1000 nM; in experiment [4], 100 to 1000 nM.
Take `CCN(CCC#N)c1nc(OC[C@@]23CCCN2C[C@H](F)C3)nc2c(F)c(-c3ccc(F)c4sc(N)c(C#N)c34)c(C(F)(F)F)cc12` [Compound 166]: the IC50 was 100 to 1000 nM in experiment [1]; under 100 nM in the experiment on GP2d cells (KRAS G12D) (GP2d); 100 to 1000 nM in experiment [2]; 100 to 1000 nM in experiment [3]; 100 to 1000 nM in experiment [4].
Regarding `N#Cc1c(N)sc2c(F)ccc(-c3c(C(F)(F)F)cc4c(N5CC[C@@H]5CO)nc(OC[C@@]56CCCN5C[C@H](F)C6)nc4c3F)c12` [Compound 168], the IC50 is 100 to 1000 nM in experiment [1]; under 100 nM in the experiment with GP2d cells (KRAS G12D) (GP2d); under 100 nM in experiment [2]; 100 to 1000 nM in experiment [3]; under 100 nM in experiment [4].
Consider `N#Cc1c(N)sc2c(F)ccc(-c3c(C(F)(F)F)cc4c(N5CC[C@H]5CO)nc(OC[C@@]56CCCN5C[C@H](F)C6)nc4c3F)c12` [Compound 169], for which the concentration for half-maximal inhibition (IC50) is 100 to 1000 nM in experiment [1]; under 100 nM with GP2d cells (KRAS G12D) (GP2d); 100 to 1000 nM in experiment [2]; 100 to 1000 nM in experiment [3]; 100 to 1000 nM in experiment [4].
As for `CN(c1nc(OC[C@@]23CCCN2C[C@H](F)C3)nc2c(F)c(-c3ccc(F)c4sc(N)c(C#N)c34)c(C(F)(F)F)cc12)C1(CO)CC1` [Compound 170], the half-inhibitory concentration (IC50) in experiment [1] was 100 to 1000 nM; in the experiment on GP2d cells (KRAS G12D) (GP2d), under 100 nM; in experiment [2] it was 100 to 1000 nM; in experiment [3] it was 100 to 1000 nM; in experiment [4], 100 to 1000 nM.
Regarding `N#Cc1c(N)sc2c(F)ccc(-c3c(C(F)(F)F)cc4c(N(CCO)C5CC5)nc(OC[C@@]56CCCN5C[C@H](F)C6)nc4c3F)c12` [Compound 171], the IC50 in experiment [1] was 100 to 1000 nM; with GP2d cells (KRAS G12D) (GP2d), under 100 nM; in experiment [2] it was 100 to 1000 nM; in experiment [3], 100 to 1000 nM; in experiment [4], 100 to 1000 nM.
For the molecule `N#Cc1c(N)sc2c(F)ccc(-c3c(C(F)(F)F)cc4c(N(CCO)CCO)nc(OC[C@@]56CCCN5C[C@H](F)C6)nc4c3F)c12` [Compound 174], the concentration for half-maximal inhibition (IC50) in experiment [1] is 100 to 1000 nM; with GP2d cells (KRAS G12D) (GP2d), under 100 nM; in experiment [2], under 100 nM; in experiment [3] it was under 100 nM; in experiment [4], under 100 nM.
For the molecule `CCN(CCCO)c1nc(OC[C@@]23CCCN2C[C@H](F)C3)nc2c(F)c(-c3ccc(F)c4sc(N)c(C#N)c34)c(C(F)(F)F)cc12` [Compound 175], the IC50 in experiment [1] is 100 to 1000 nM; in the experiment with GP2d cells (KRAS G12D) (GP2d), under 100 nM; in experiment [2], 100 to 1000 nM; in experiment [3], 100 to 1000 nM; in experiment [4], 100 to 1000 nM.
As for `CCN(CCO)c1nc(OCC23CCCN2CCC3)nc2c(F)c(-c3ccc(F)c4sc(N)c(C#N)c34)c(C(F)(F)F)cc12` [Compound 176], the IC50 in experiment [1] is 100 to 1000 nM; in the experiment with GP2d cells (KRAS G12D) (GP2d) it was under 100 nM; in experiment [2], under 100 nM; in experiment [3], 100 to 1000 nM; in experiment [4], 100 to 1000 nM.
With `CCN(CCO)c1nc(OC[C@@H]2C[C@@H](F)CN2C)nc2c(F)c(-c3ccc(F)c4sc(N)c(C#N)c34)c(C(F)(F)F)cc12` [Compound 177], the 50% inhibitory concentration (IC50) is 100 to 1000 nM in experiment [1]; under 100 nM in the experiment on GP2d cells (KRAS G12D) (GP2d); 100 to 1000 nM in experiment [2]; 100 to 1000 nM in experiment [3]; 100 to 1000 nM in experiment [4].
As for `CCN(CCO)c1nc(OC[C@@H]2C[C@@H](OC)CN2C)nc2c(F)c(-c3ccc(F)c4sc(N)c(C#N)c34)c(C(F)(F)F)cc12` [Compound 178], the half-maximal inhibitory concentration (IC50) in experiment [1] was 1000 to 10000 nM; in the experiment with GP2d cells (KRAS G12D), under 100 nM; in experiment [2], 100 to 1000 nM; in experiment [3], 100 to 1000 nM; in experiment [4] it was 1000 to 10000 nM.
Consider `CCN(CCO)c1nc(OC[C@@H]2CCCN2C)nc2c(F)c(-c3ccc(F)c4sc(N)c(C#N)c34)c(C(F)(F)F)cc12` [Compound 179], for which the half-maximal inhibitory concentration (IC50) in experiment [1] is 100 to 1000 nM; in the experiment on GP2d cells (KRAS G12D) (GP2d) it was under 100 nM; in experiment [2], 100 to 1000 nM; in experiment [3] it was 100 to 1000 nM; in experiment [4], 100 to 1000 nM.
For `CCN(CCO)c1nc(OC[C@@H]2CC3(CC3)CN2C)nc2c(F)c(-c3ccc(F)c4sc(N)c(C#N)c34)c(C(F)(F)F)cc12` [Compound 180], the IC50 in experiment [1] was 100 to 1000 nM; with GP2d cells (KRAS G12D) (GP2d) it was under 100 nM; in experiment [2], 100 to 1000 nM; in experiment [3], 100 to 1000 nM; in experiment [4], 100 to 1000 nM.
With `CN(c1nc(OC[C@@]23CCCN2C[C@H](F)C3)nc2c(F)c(-c3ccc(F)c4sc(N)c(C#N)c34)c(C(F)(F)F)cc12)[C@@H]1C[C@H](O)[C@H]1CO` [Compound 181], the IC50 is 100 to 1000 nM in experiment [1]; under 100 nM with GP2d cells (KRAS G12D) (GP2d); under 100 nM in experiment [2]; 100 to 1000 nM in experiment [3]; under 100 nM in experiment [4].
With `CN(c1nc(OC[C@@]23CCCN2C[C@H](F)C3)nc2c(F)c(-c3ccc(F)c4sc(N)c(C#N)c34)c(C(F)(F)F)cc12)[C@@H]1C[C@H](O)[C@H]1CC#N` [Compound 182], the IC50 was 100 to 1000 nM in experiment [1]; under 100 nM with GP2d cells (KRAS G12D) (GP2d); 100 to 1000 nM in experiment [2]; 100 to 1000 nM in experiment [3]; 100 to 1000 nM in experiment [4].
Regarding `CC(=O)N1CCN(c2nc(OC[C@@]34CCCN3C[C@H](F)C4)nc3c(F)c(-c4ccc(F)c5sc(N)c(C#N)c45)c(C(F)(F)F)cc23)C[C@@H]1CC#N` [Compound 183], the half-maximal inhibitory concentration (IC50) in experiment [1] was in the range of 1000 to 10000 nM; with GP2d cells (KRAS G12D) (GP2d), 100 to 1000 nM; in experiment [2] it was 1000 to 10000 nM; in experiment [3], 1000 to 10000 nM; in experiment [4] it was 1000 to 10000 nM.
Regarding `CC(=O)N1CCN(c2nc(OC[C@@]34CCCN3C[C@H](F)C4)nc3c(F)c(-c4ccc(F)c5sc(N)c(C#N)c45)c(C(F)(F)F)cc23)C[C@H]1CC#N` [Compound 184], the IC50 is over 10000 nM in experiment [1]; 100 to 1000 nM with GP2d cells (KRAS G12D) (GP2d); 1000 to 10000 nM in experiment [2]; over 10000 nM in experiment [3]; over 10000 nM in experiment [4].
For the molecule `CCN(c1nc(OC[C@@]23CCCN2C[C@H](F)C3)nc2c(F)c(-c3ccc(F)c4sc(N)c(C#N)c34)c(C(F)(F)F)cc12)[C@@H]1CCN(C(C)=O)[C@@H]1C` [Compound 189], the 50% inhibitory concentration (IC50) is 100 to 1000 nM in experiment [1]; under 100 nM with GP2d cells (KRAS G12D) (GP2d); 100 to 1000 nM in experiment [2]; 100 to 1000 nM in experiment [3]; 100 to 1000 nM in experiment [4].
Regarding `CC(=O)N1CC[C@H](N(C)c2nc(OC[C@@]34CCCN3C[C@H](F)C4)nc3c(F)c(-c4ccc(F)c5sc(N)c(C#N)c45)c(C(F)(F)F)cc23)[C@H]1C` [Compound 191], the IC50 in experiment [1] was 100 to 1000 nM; in the experiment on GP2d cells (KRAS G12D) (GP2d), under 100 nM; in experiment [2] it was 100 to 1000 nM; in experiment [3], 100 to 1000 nM; in experiment [4] it was 100 to 1000 nM.

In general, IC50 refers to the concentration at which inhibition is half-maximal. Low readings indicate greater potency, high ones weaker potency.
